According to ChEMBL document CHEMBL1201862, “PubChem BioAssay data set” (2004):
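Cells were grown in 96-well plates and exposed to each compound for 48 hours at five concentrations; endpoints were interpolated linearly between bracketing concentrations, or set to the highest concentration if not reached. Here, GI50 denotes the concentration required for 50% inhibition of growth.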 Activity calls are given as the source filed them. Cut-off read from the data, not from the text of the source: active = GI50 up to about 1.1 µM and inactive = higher.

How the values were obtained:
Test in all cases: growth of human tumour cells (NCI), 48 h
K562 = tested on: K562
NCI-H460 = tested on: NCI-H460
UO-31 = tested on: UO-31
SF-539 = tested on: SF-539
LOX IMVI = tested on: LOX IMVI
XF498 = tested on: XF498
A549 = tested on: A549
SK-MEL-5 = tested on: SK-MEL-5
HOP-92 = tested on: HOP-92
HCC 2998 = tested on: HCC 2998
HCT-116 = tested on: HCT-116
HCT-15 = tested on: HCT-15
SN12C = tested on: SN12C
NCI-H226 = tested on: NCI-H226
HT-29 = tested on: HT-29
NCI-H23 = tested on: NCI-H23
NCI-H522 = tested on: NCI-H522

| Compound | GI50 (K562) | GI50 (NCI-H460) | GI50 (UO-31) | GI50 (SF-539) | GI50 (LOX IMVI) | GI50 (XF498) | GI50 (A549) | GI50 (SK-MEL-5) | GI50 (HOP-92) | GI50 (HCC 2998) | GI50 (HCT-116) | GI50 (HCT-15) | GI50 (SN12C) | GI50 (NCI-H226) | GI50 (HT-29) | GI50 (NCI-H23) | GI50 (NCI-H522) |
| --- | --- | --- | --- | --- | --- | --- | --- | --- | --- | --- | --- | --- | --- | --- | --- | --- | --- |
| COc1ccc(O)c(C#N)c1C#N.COc1ccc(OC)c(C#N)c1C#N | > 100 µM (inactive) | > 100 µM (inactive) | > 100 µM (inactive) | > 100 µM (inactive) | > 100 µM (inactive) | > 100 µM (inactive) | > 100 µM (inactive) | > 100 µM (inactive) | > 100 µM (inactive) | > 100 µM (inactive) | > 100 µM (inactive) | > 100 µM | > 100 µM (inactive) | > 100 µM (inactive) | > 100 µM (inactive) | > 100 µM (inactive) |  |
| O=C(O)c1ccccc1/N=C/c1ccc(N(CCCl)CCCl)cc1 | > 100 µM (inactive) | 31.5 µM (inactive) | > 65.2 µM (inactive) | > 66.5 µM (inactive) | > 100 µM (inactive) | 0.01 µM (active) | > 100 µM (inactive) | > 100 µM (inactive) | > 100 µM (inactive) | > 100 µM (inactive) | > 100 µM (inactive) | > 100 µM | > 85.5 µM (inactive) |  | > 100 µM (inactive) | 47.6 µM (inactive) | > 100 µM (inactive) |
| CC(=O)N/C(=C\c1cccc([N+](=O)[O-])c1)c1nc2ccc3c(c2[nH]1)C(=O)c1ccccc1C3=O | 23.9 µM (inactive) | 27.2 µM (inactive) | 3.62 µM (inactive) | 42 µM (inactive) | 13.3 µM (inactive) | 52.5 µM (inactive) | 26.6 µM (inactive) | > 79.6 µM (inactive) | > 50.4 µM (inactive) | > 100 µM (inactive) | 17.9 µM (inactive) | 13.9 µM | 21 µM (inactive) | > 100 µM (inactive) | > 100 µM (inactive) | 39.8 µM (inactive) | 9.89 µM (inactive) |
| CCOC(=O)C(=O)C(C#N)c1ccc(Cl)cc1 (stereo not given) | > 100 µM (inactive) | > 100 µM (inactive) | 88.1 µM (inactive) | > 100 µM (inactive) | > 100 µM (inactive) | > 100 µM (inactive) | > 100 µM (inactive) | > 100 µM (inactive) | > 100 µM (inactive) |  | > 100 µM (inactive) | > 100 µM | > 100 µM (inactive) | 62.4 µM (inactive) | > 100 µM (inactive) | > 100 µM (inactive) | > 100 µM (inactive) |
| CCOC(=O)NC(=O)c1c[nH]c(=O)[nH]c1=O | > 100 µM (inactive) | > 100 µM (inactive) | > 100 µM (inactive) | > 100 µM (inactive) | > 100 µM (inactive) | > 100 µM (inactive) | > 100 µM (inactive) | > 100 µM (inactive) | > 100 µM (inactive) | > 100 µM (inactive) | > 100 µM (inactive) | > 100 µM | > 100 µM (inactive) | > 100 µM (inactive) | > 100 µM (inactive) | > 100 µM (inactive) |  |
| CCOC(=O)CC(=O)ON(C)C(C)=O | > 100 µM (inactive) | > 100 µM (inactive) | > 100 µM (inactive) | > 100 µM (inactive) | > 100 µM (inactive) | > 100 µM (inactive) | > 100 µM (inactive) | > 100 µM (inactive) |  | > 100 µM (inactive) | > 100 µM (inactive) | > 100 µM | > 100 µM (inactive) | > 100 µM (inactive) | > 100 µM (inactive) | > 100 µM (inactive) | > 100 µM (inactive) |
| C[Si](C)(C)C(Sc1ccccc1)(Sc1ccccc1)Sc1ccccc1 | > 100 µM (inactive) | > 100 µM (inactive) | > 100 µM (inactive) | > 100 µM (inactive) | 58.5 µM (inactive) | 30.8 µM (inactive) | 39.3 µM (inactive) | 67.9 µM (inactive) | 17.1 µM (inactive) | 94 µM (inactive) | 60.3 µM (inactive) | 50.5 µM | > 100 µM (inactive) |  |  | 22.3 µM (inactive) |  |
| CC(C)N(C(=O)c1cccc(C(=O)N(C(C)C)C(C)C)c1)C(C)C | > 100 µM (inactive) | > 100 µM (inactive) | > 100 µM (inactive) | > 100 µM (inactive) | > 100 µM (inactive) | > 100 µM (inactive) | > 100 µM (inactive) | > 100 µM (inactive) | > 100 µM (inactive) | > 100 µM (inactive) | > 100 µM (inactive) | > 100 µM | > 100 µM (inactive) | > 100 µM (inactive) | > 100 µM (inactive) | > 100 µM (inactive) | > 100 µM (inactive) |
| CC(=O)NC1=C(NCc2ccc(Cl)cc2)C(=O)c2ccccc2C1=O | 2.46 µM (inactive) | 10.8 µM (inactive) | 5.15 µM (inactive) | 4.41 µM (inactive) | 8.2 µM (inactive) | 1.44 µM (inactive) | 12.5 µM (inactive) | 5.46 µM (inactive) |  | 27.5 µM (inactive) | 3.12 µM (inactive) | 5.57 µM | 13.9 µM (inactive) | 9.59 µM (inactive) | 17.8 µM (inactive) | 6.76 µM (inactive) | 0.986 µM (active) |
| O=[N+]([O-])c1ccc(NC2OCC(O)C(O)C2O)cc1 (stereo not given) | > 100 µM (inactive) | > 100 µM (inactive) | > 100 µM (inactive) | > 100 µM (inactive) | > 100 µM (inactive) | > 100 µM (inactive) | > 100 µM (inactive) | > 100 µM (inactive) | > 100 µM (inactive) | > 100 µM (inactive) |  | > 100 µM | > 100 µM (inactive) | > 100 µM (inactive) | > 100 µM (inactive) | > 100 µM (inactive) | > 100 µM (inactive) |
| CCOc1ccc2nc(NC(=O)c3c/c(=N\NC(=O)C[N+](C)(C)C)c4ccc(O)cc4o3)sc2c1 | 1.92 µM (inactive) | 3.04 µM (inactive) | 11.8 µM (inactive) | 3.85 µM (inactive) | 1.14 µM (inactive) | 2.83 µM (inactive) | 2.76 µM (inactive) | 0.555 µM (active) | 1.72 µM (inactive) | 7.53 µM (inactive) | 3.4 µM (inactive) | 5.93 µM | 3.55 µM (inactive) | 3.25 µM (inactive) | 3.56 µM (inactive) | 1.59 µM (inactive) | 1.95 µM (inactive) |
| CC(C)Cc1ccc(C(C)/C=C2\CCC(CN3CCCC3)C2=O)cc1 (stereo not given) | 3.91 µM (inactive) | 17.7 µM (inactive) | 15.9 µM (inactive) | 5.81 µM (inactive) | 2.88 µM (inactive) | 8.73 µM (inactive) | 18.3 µM (inactive) | 14.8 µM (inactive) | 19.1 µM (inactive) | 7.08 µM (inactive) | 4.13 µM (inactive) | 4.06 µM | 3.97 µM (inactive) | 18.1 µM (inactive) | 8.09 µM (inactive) | 11.5 µM (inactive) | 1.31 µM (inactive) |
| O=C(CC1(O)C(=O)Nc2c(Cl)cc(Cl)cc21)c1ccc2ccccc2c1 (stereo not given) | 3.18 µM (inactive) | 4.7 µM (inactive) | 11.5 µM (inactive) | 8.17 µM (inactive) | 10.5 µM (inactive) | 11.6 µM (inactive) | 5.2 µM (inactive) | 6.11 µM (inactive) | 21.4 µM (inactive) | > 10 µM (inactive) |  | 3.62 µM | 10.4 µM (inactive) |  | 5.25 µM (inactive) | 7.33 µM (inactive) | 2.92 µM (inactive) |
| CCC12CCCN(Cc3ccccc3)C1c1c(n(C)c3ccccc13)C(CO)C2 (stereo not given) | 29.4 µM (inactive) | 39.5 µM (inactive) |  | 37.6 µM (inactive) | 41.9 µM (inactive) | 43.3 µM (inactive) | 81.8 µM (inactive) | 40.2 µM (inactive) | 33.4 µM (inactive) | 58.1 µM (inactive) | 14 µM (inactive) | 38.3 µM | 42.6 µM (inactive) | 34.3 µM (inactive) | 17.9 µM (inactive) | 52.2 µM (inactive) | 30.8 µM (inactive) |
| Cc1cc(C)nc(NS(=O)(=O)c2ccc(NC(=O)c3ccc(Cl)c4c(Nc5ccc(S(=O)(=O)N=C(N)N)cc5)c5ccccc5nc34)cc2)n1 | 19 µM (inactive) | > 10 µM (inactive) | > 100 µM (inactive) | 34 µM (inactive) | 17.8 µM (inactive) | > 100 µM (inactive) | > 100 µM (inactive) | > 100 µM (inactive) | 25.5 µM (inactive) | 29.1 µM (inactive) | 24 µM (inactive) |  | 20.8 µM (inactive) | > 100 µM (inactive) | 16.4 µM (inactive) | 3.91 µM (inactive) | 16.1 µM (inactive) |
| CN(CC#N)C1CCCC[C@H]1O (stereo not given in full) | > 100 µM (inactive) | > 100 µM (inactive) | > 100 µM (inactive) | > 100 µM (inactive) | > 100 µM (inactive) | > 100 µM (inactive) | > 100 µM (inactive) | > 100 µM (inactive) | > 100 µM (inactive) | > 100 µM (inactive) | > 100 µM (inactive) | > 100 µM | > 100 µM (inactive) | > 100 µM (inactive) | > 100 µM (inactive) | > 100 µM (inactive) | > 100 µM (inactive) |
| COC(=O)C1=C(C(=O)OC)C2(OC(C)=O)c3ccccc3-c3ccccc3C12 (stereo not given) | 1.83 µM (inactive) | 17 µM (inactive) | 4.68 µM (inactive) | 17.2 µM (inactive) | 5.09 µM (inactive) | 12.4 µM (inactive) | 17.3 µM (inactive) | 14.1 µM (inactive) | 1.77 µM (inactive) | 16.7 µM (inactive) | 3.66 µM (inactive) | 5.26 µM | 4.89 µM (inactive) | 16.5 µM (inactive) | 5.47 µM (inactive) | 11.5 µM (inactive) | 1.44 µM (inactive) |
